Measurements taken from paper PMC9658295, “The RSL3 Induction of KLK Lung Adenocarcinoma Cell Ferroptosis by Inhibition of USP11 Activity and the NRF2-GSH Axis” (Cancers, 2022).

What was measured:
USP11 [1] = target: T1, USP11 (Homo sapiens, UniProt P51784, Q402E/Y833E); test: bio-layer interferometry (Octet), biotinylated protein on SSA sensors, […] global fit; assay type: binding
T1 construct: biotin-labelled for BLI

USP11 [2] = target: T2, USP11 (Homo sapiens, UniProt P51784); test: as above; assay type: binding; settings: PBS-T, 30 °C; RSL3 6.81-218 μM; unreliable (KD above the highest concentration tested); protein refolded from 8 M urea
T2 construct: biotin-labelled for BLI
T2 sequence (P51784 whole entry): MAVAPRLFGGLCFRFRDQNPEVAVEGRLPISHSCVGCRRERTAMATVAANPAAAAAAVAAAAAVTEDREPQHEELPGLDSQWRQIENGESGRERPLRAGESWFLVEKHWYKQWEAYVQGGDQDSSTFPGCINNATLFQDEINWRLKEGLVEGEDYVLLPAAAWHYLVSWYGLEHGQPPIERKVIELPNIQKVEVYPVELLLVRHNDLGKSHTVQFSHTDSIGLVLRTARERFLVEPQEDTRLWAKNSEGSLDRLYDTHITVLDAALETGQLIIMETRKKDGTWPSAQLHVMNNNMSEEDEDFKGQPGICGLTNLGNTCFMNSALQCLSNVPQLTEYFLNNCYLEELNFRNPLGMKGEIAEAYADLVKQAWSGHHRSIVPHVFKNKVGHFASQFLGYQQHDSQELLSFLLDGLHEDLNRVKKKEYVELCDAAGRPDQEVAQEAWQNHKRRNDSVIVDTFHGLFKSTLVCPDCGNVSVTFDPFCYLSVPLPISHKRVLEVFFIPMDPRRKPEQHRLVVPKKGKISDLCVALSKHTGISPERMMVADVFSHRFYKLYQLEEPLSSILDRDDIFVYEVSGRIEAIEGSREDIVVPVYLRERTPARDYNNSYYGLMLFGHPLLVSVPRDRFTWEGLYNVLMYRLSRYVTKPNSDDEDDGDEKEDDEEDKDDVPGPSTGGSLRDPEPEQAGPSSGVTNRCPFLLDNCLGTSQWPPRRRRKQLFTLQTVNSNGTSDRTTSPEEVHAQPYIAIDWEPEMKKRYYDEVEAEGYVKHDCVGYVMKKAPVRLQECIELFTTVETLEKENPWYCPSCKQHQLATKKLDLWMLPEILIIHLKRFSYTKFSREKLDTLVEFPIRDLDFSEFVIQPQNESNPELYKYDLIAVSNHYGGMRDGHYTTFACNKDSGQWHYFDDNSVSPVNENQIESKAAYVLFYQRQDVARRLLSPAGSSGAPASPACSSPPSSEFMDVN

T1 sequence (P51784 whole entry Q402E/Y833E): as the sequence (P51784 whole entry) above, with Q402E, Y833E counted along it

For `COC(=O)c1ccc([C@H]2c3[nH]c4ccccc4c3C[C@H](C(=O)OC)N2C(=O)CCl)cc1` [RSL3], which Kd (USP11 [1]) is on record?
The Kd was 190 µM.

And the KD (USP11 [2])?
Its KD is 340 µM.
